{"source": "paper PMC12389018", "about": "“Eugenia uniflora L.: Analysis of Chemical Profile and Cytotoxic Action on Tumor (HeLa) and Non-Tumor Cells (NIH/3T3)” (Pharmaceuticals, 2025)", "key": {"[1]": {"tested_on": "HeLa (cervical cancer) cells", "assay": "MTT cell viability assay in HeLa cells", "format": "cell-based, human", "description": "(§1) The HeLa (cervical cancer) and NIH/3T3 (murine fibroblast) cells were seeded in 96-well plates at a density of 3 × 10^4 cells/well in DMEM (Dulbecco’s Modified Eagle Medium; Gibco, Thermo Fisher, Paisley, UK), supplemented with 10% fetal bovine serum (FBS; Cultilab®, São Paulo, Brazil) and 1% penicillin/streptomycin (Pen/Strep—Cultilab®, Campinas, Brazil). The cells were incubated at 37 °C in a humidified atmosphere containing 5% CO2 for 24 h. After incubation, the cells were treated with EUD and EUA extracts at concentrations ranging from 3.5 µg/mL to 250 µg/mL and incubated for an additional 48 h. The cell lines were kindly donated by Cemib (Multidisciplinary Center for Biological Research in the Laboratory Animal Science Area, Campinas, Brazil)—Unicamp/SP.\n(§2) One row of wells was treated only with the vehicle (culture medium) to serve as the negative control, representing 100% cell viability. Doxorubicin (Libbs®, São Paulo, Brazil) and carboplatin (Blau Farmacêutica®, São Paulo, Brazil) were used as the positive controls.\nFollowing treatment, the medium was removed, and 100 µL/well of MTT reagent (5 mg/mL; 3-[4,5-dimethylthiazol-2-yl]-2,5-diphenyltetrazolium bromide; Invitrogen, Thermo Fisher, Waltham, MA, USA) was added. The plates were incubated for 4 h at 37 °C. After incubation, the resulting formazan crystals formed in viable cells were solubilized by adding 100 µL/well of DMSO (dimethyl sulfoxide; Labsynth, São Paulo, Brazil). Absorbance was measured at 570 nm using an Epoch-Biotek ELISA microplate spectrophotometer (BioTek Instruments, Winooski, VT, USA).\nStatistical analysis was performed using GraphPad Prism 8.4.6 (GraphPad Software, Inc., Boston, MA, USA) via one-way ANOVA followed by Tukey’s post hoc test. Differences were considered statistically significant at p < 0.05. All the experiments were conducted in triplicate."}, "[2]": {"tested_on": "NIH/3T3 (murine fibroblast) cells", "assay": "MTT cell viability assay in NIH/3T3 cells", "format": "cell-based", "description": "as §1, §2\nFollowing treatment, the medium was removed, and 100 µL/well of MTT reagent (5 mg/mL; 3-[4,5-dimethylthiazol-2-yl]-2,5-diphenyltetrazolium bromide; Invitrogen, Thermo Fisher, Waltham, MA, USA) was added. […] Absorbance was measured at 570 nm using an Epoch-Biotek ELISA microplate spectrophotometer (BioTek Instruments, Winooski, VT, USA). […]"}, "[3]": {"tested_on": "HeLa cells vs NIH/3T3 cells", "assay": "Selectivity index (IC50 NIH/3T3 divided by IC50 HeLa)", "format": "cell-based", "settings": "IC50 NIH/3T3 / IC50 HeLa; SI ≥ 2 considered selective", "description": "The selectivity index (SI) was calculated by dividing the IC50 value of NIH/3T3 cells by the IC50 of HeLa cells. Samples with SI ≥ 2 were considered selectively cytotoxic to cancer cells."}, "HeLa cells [4]": {"tested_on": "HeLa cells", "assay": "Cell migration assay (scratch assay)", "format": "cell-based, human", "settings": "EUD 7.5 μg/mL, EUA 10 μg/mL, doxorubicin 0.375 μg/mL", "description": "The HeLa cells (70,000–80,000 cells/well) were seeded in 24-well plates with DMEM supplemented with 10% FBS and 1% Pen/Strep and incubated at 37 °C with 5% CO2 until 80% confluence. The medium was replaced with DMEM containing 0.2% FBS, and after 24 h, a scratch was made in the cell monolayer using a 1000 µL pipette tip. The cells were washed with sterile PBS, and they were treated with doxorubicin (positive control) and EUD and EUA extracts at ¼ of their IC50 values: 7.5 µg/mL (EUD), 10 µg/mL (EUA), and 0.375 µg/mL (doxorubicin).\nImages were captured at 0 h (T0), 12 h (T1), 18 h (T2), and 24 h (T3) using an EVOS XL Core Imaging System microscope (10× objective). Scratch area percentages were analyzed using the ImageJ software 1.54g/Java 1.8.0_421 (32-bit), and statistical analysis was performed using one-way ANOVA with GraphPad Prism 8.4.3. All the experiments were conducted in triplicate."}, "HeLa cells [5]": {"tested_on": "HeLa cells", "assay": "Cell cycle analysis by flow cytometry with PI staining", "format": "cell-based, human", "settings": "treated at IC50, 48 h", "description": "The HeLa cells (2 × 10^5 cells/well) were seeded in 6-well plates and incubated for 24 h. The cells were then treated with the EUD and EUA extracts and doxorubicin at their respective IC50 concentrations. The vehicle-treated cells served as the negative control. After 48 h, cells were harvested with trypsin, centrifuged, fixed in 70% ethanol, and stained with propidium iodide (PI) (Sigma-Aldrich®). The samples were incubated at 37 °C for 30 min in the dark and analyzed using a BD Accuri™ C6 Plus flow cytometer. Histograms were processed with the Cell Quest Pro software (version 5.1). Data was analyzed using two-way ANOVA in GraphPad Prism 8.4.3, with significance at p < 0.05."}, "[6]": {"tested_on": "SiHa cells, a cervical squamous cell carcinoma line", "design": "method as in PMID 37935292", "settings": "cited from earlier work"}, "[7]": {"tested_on": "non-small-cell lung cancer cells NCI-H358", "design": "method as in doi:10.3390/scipharm91030042", "settings": "cited from earlier work"}, "[8]": {"tested_on": "non-small-cell lung cancer cells A549", "design": "method as in doi:10.3390/scipharm91030042", "settings": "cited from earlier work"}, "[9]": {"tested_on": "breast cancer cells MDA-MB-468", "design": "method as in doi:10.3390/scipharm91030042", "settings": "cited from earlier work"}, "[10]": {"tested_on": "breast cancer cells MDA-MB-231", "design": "method as in doi:10.3390/scipharm91030042", "settings": "cited from earlier work"}, "[11]": {"tested_on": "human cervical (HeLa) cancer cells", "settings": "in vitro; cited from earlier work"}, "[12]": {"tested_on": "liver (Hep-G2) cancer cells", "settings": "in vitro; cited from earlier work"}}, "data": [{"compound": "N.N.O=C([O-])C1(C(=O)[O-])CCC1.[Pt+2]", "note": "[Carboplatin]", "values": [{"measurement": "IC50 Tumor Cells HeLa", "setting": "[1]; 48 h treatment", "result": 52.40, "unit": "µg/mL"}, {"measurement": "concentrations with statistically significant reduction of HeLa cell viability vs negative control", "setting": "[1]; p < 0.05", "result": "> 25", "unit": "µg/mL"}, {"measurement": "IC50 Non-Tumor cells NIH/3T3", "setting": "[2]; 48 h treatment", "result": 38.32, "unit": "µg/mL"}, {"measurement": "Selectivity Index (SI)", "setting": "[3]", "result": 0.73}]}, {"compound": "COc1cccc2c1C(=O)c1c(O)c3c(c(O)c1C2=O)C[C@@](O)(C(=O)CO)C[C@@H]3O[C@H]1C[C@H](N)[C@H](O)[C@H](C)O1", "note": "[Doxorubicin]", "values": [{"measurement": "IC50", "setting": "[1]; Homo sapiens, HeLa, 48 h treatment, read-out: IC50 Tumor Cells HeLa", "result": 1.59, "unit": "µg/mL"}, {"measurement": "IC50", "setting": "[2]; Mus musculus, NIH3T3, 48 h treatment, read-out: IC50 Non-Tumor cells NIH/3T3", "result": 2.32, "unit": "µg/mL"}, {"measurement": "Selectivity Index (SI)", "setting": "[3]", "result": 1.5}, {"measurement": "free area (scratch) at T1", "setting": "HeLa cells [4]; 12 h", "result": 39.51, "unit": "%"}, {"measurement": "free area (scratch) at T2", "setting": "HeLa cells [4]; 18 h", "result": 36.49, "unit": "%"}, {"measurement": "free area (scratch) at T3", "setting": "HeLa cells [4]; 24 h", "result": 32.17, "unit": "%"}, {"measurement": "inhibition of cell migration compared to the negative control", "setting": "HeLa cells [4]", "result": "did not significantly inhibit tumor cell migration"}, {"measurement": "cells in SubG0 phase", "setting": "HeLa cells [5]; negative control 2.97%", "result": 44.20, "unit": "%"}, {"measurement": "cells in G2/M phase", "setting": "HeLa cells [5]; negative control 7.97%", "result": 0.245, "unit": "%"}, {"measurement": "cells in S phase", "setting": "HeLa cells [5]; negative control 30.55%", "result": 12.1, "unit": "%"}, {"measurement": "cells in G1/G0 phase", "setting": "HeLa cells [5]; negative control 56.75%", "result": 42.75, "unit": "%"}]}, {"compound": "O=c1oc2c(O)c(O)cc3c(=O)oc4c(O)c(O)cc1c4c23", "note": "[ellagic acid, Ellagic acid]", "values": [{"measurement": "effect on proliferation of SiHa cells", "setting": "[6]", "result": "inhibit cell proliferation"}, {"measurement": "effect on proliferation of NCI-H358 cells", "setting": "[7]", "result": "inhibited the proliferation"}, {"measurement": "effect on proliferation of A549 cells", "setting": "[8]", "result": "inhibited the proliferation"}, {"measurement": "effect on proliferation of MDA-MB-468 cells", "setting": "[9]", "result": "inhibited the proliferation"}, {"measurement": "effect on proliferation of MDA-MB-231 cells", "setting": "[10]", "result": "inhibited the proliferation"}]}, {"compound": "myricitrin", "values": [{"measurement": "cytotoxicity against HeLa cancer cells", "setting": "[11]", "result": "considerable cytotoxicity"}, {"measurement": "cytotoxicity against Hep-G2 cancer cells", "setting": "[12]", "result": "considerable cytotoxicity"}]}, {"compound": "unifloratrin", "values": [{"measurement": "cytotoxicity against HeLa cancer cells", "setting": "[11]", "result": "considerable cytotoxicity"}, {"measurement": "cytotoxicity against Hep-G2 cancer cells", "setting": "[12]", "result": "considerable cytotoxicity"}]}]}
